Assay results reported in ChEMBL document CHEMBL3421624, “Design and Synthesis of Antitumor Heck-Coupled Sclareol Analogues: Modulation of BH3 Family Members by SS-12 in Autophagy and Apoptotic Cell Death” (J Med Chem, 2015).
Calls of active or inactive are those of the source. No cut-off for these calls is given here.

Tests used:
PC-3 [1] = assay: Induction of apoptosis in human PC3 cells over-expressing Bcl-2 at 300 nM pre-treated with 20 uM apoptosis inhibitor z-VAD-fmk for 1 hr before compound exposure for 24 hrs by DAPI staining method; assay type: functional, cell-based
Mus musculus [2] = assay: Toxicity in mouse S180 solid tumor cells implanted Swiss albino mouse assessed as mouse mortality at 5 mg/kg, ip measured on day 13; assay type: organism-based; design: dose 5 mg/kg, route intraperitoneal; conditions: in vivo
PC-3 [3] = assay: Induction of apoptosis in human PC3 cells assessed as nuclear condensation at 100 to 300 nM after 24 hrs by DAPI staining assay; assay type: functional, cell-based
Mus musculus [4] = assay: Toxicity in mouse S180 ascites cells implanted Swiss albino mouse assessed as mouse mortality at 5 mg/kg, ip measured on day 13; assay type: organism-based; design: dose 5 mg/kg, route intraperitoneal; conditions: in vivo
CCRF S-180 [5] = assay: Antitumor activity against mouse S180 solid tumor cells implanted in Swiss albino mouse assessed as tumor growth inhibition at 5 mg/kg, ip measured on day 13; assay type: functional; conditions: CCRF S-180, ip, 312 h, route intraperitoneal, read-out: TGI
[6] = Cytotoxicity against human PC3 cells after 48 hrs by MTT assay; assay type: functional, cell-based; conditions: PC-3, 48 h
PC-3 [7] = assay: Induction of autophagy in human PC3 cells assessed as LC3 protein accumulation in autophagosomes after 24 hrs by fluorescence microscopy; assay type: functional, cell-based
PC-3 [8] = assay: Induction of autophagy in human PC3 cells over-expressing Bcl-2 at 300 nM pre-treated with 5 mM autophagy inhibitor 3-MA for 1 hr before compound exposure for 24 hrs by acridine orange staining based fluorescence microscopy; assay type: functional, cell-based
PC-3 [9] = assay: Induction of autophagy in human PC3 cells assessed as reduction in SQSTM1/P62 protein levels at 0.1 to 0.3 uM after 24 hrs by Western blotting method; assay type: functional, cell-based
PC-3 [10] = assay: Induction of autophagy in human PC3 cells over-expressing DS-Red-Beclin-1 at 300 nM pre-treated with 20 uM apoptosis inhibitor z-VAD-fmk for 1 hr before compound exposure for 24 hrs by acridine orange staining based fluorescence microscopy; assay type: functional, cell-based
PC-3 [11] = assay: Increase in autophagy in human PC3 cells at 300 nM pre-treated with 20 uM apoptosis inhibitor z-VAD-fmk for 1 hr before compound exposure for 24 hrs by acridine orange staining based fluorescence microscopy; assay type: functional, cell-based
[12] = Effect on total Akt protein levels in human PC3 cells at 0.1 to 0.3 uM after 24 hrs by Western blotting method; assay type: ADME, cell-based; conditions: pc-3, 24 h
PC-3 [13] = assay: Induction of autophagy in human PC3 cells at 100 to 300 nM after 24 hrs by acridine orange staining based fluorescence microscopy; assay type: functional
PC-3 [14] = assay: Induction of autophagy in human PC3 cells at 300 nM pre-treated with 5 mM autophagy inhibitor 3-MA for 1 hr before compound exposure for 24 hrs by acridine orange staining based fluorescence microscopy; assay type: functional, cell-based
CCRF S-180 [15] = assay: Antitumor activity against mouse S180 ascites cells implanted in Swiss albino mouse assessed as tumor growth inhibition at 5 mg/kg, ip measured on day 12; assay type: functional; conditions: CCRF S-180, ip, 288 h, route intraperitoneal, read-out: TGI
PC-3 [16] = assay: Induction of apoptosis in human PC3 cells assessed as caspase-3 cleavage at 300 nM after 24 hrs by Western blotting method; assay type: functional, cell-based
Mus musculus [17] = assay: Toxicity in mouse S180 solid tumor cells implanted Swiss albino mouse assessed as mouse mortality at 10 mg/kg, ip measured on day 13; assay type: organism-based; design: dose 10 mg/kg, route intraperitoneal; conditions: in vivo
PC-3 [18] = assay: Induction of apoptosis in human PC3 cells assessed as membrane blebbing at 100 to 300 nM after 24 hrs by DAPI staining assay; assay type: functional, cell-based
PC-3 [19] = assay: Induction of autophagy in human PC3 cells assessed as increase in conversion of LC3-I to LC3-II at 0.1 to 0.3 uM after 24 hrs by Western blotting method; assay type: functional, cell-based
CCRF S-180 [20] = assay: Antitumor activity against mouse S180 ascites cells implanted in Swiss albino mouse assessed as tumor growth inhibition at 10 mg/kg, ip measured on day 12; assay type: functional; conditions: CCRF S-180, ip, 288 h, route intraperitoneal, read-out: TGI
CCRF S-180 [21] = assay: Antitumor activity against mouse S180 solid tumor cells implanted in Swiss albino mouse assessed as tumor growth inhibition at 10 mg/kg, ip measured on day 13; assay type: functional; conditions: CCRF S-180, ip, 312 h, route intraperitoneal, read-out: TGI
PC-3 [22] = assay: Induction of apoptosis in human PC3 cells at 300 nM pre-treated with 5 mM autophagy inhibitor 3-MA for 1 hr before compound exposure for 24 hrs by DAPI staining method; assay type: functional, cell-based
A549 = assay: Cytotoxicity against human A549 cells after 48 hrs by MTT assay; assay type: functional, cell-based; conditions: A549, 48 h
PC-3 [23] = assay: Induction of apoptosis in human PC3 cells assessed as caspase-3 cleavage at 0.1 to 0.3 uM after 24 hrs by Western blotting method; assay type: functional, cell-based
[24] = Effect on total mTOR protein levels in human PC3 cells at 0.1 to 0.3 uM after 24 hrs by Western blotting method; assay type: ADME, cell-based; conditions: pc-3, 24 h
PC-3 [25] = assay: Induction of autophagy in human PC3 cells assessed as acidic vesicular organelles formation at 100 to 300 nM after 24 hrs by acridine orange staining based fluorescence microscopy; assay type: functional, cell-based
Mus musculus [26] = assay: Toxicity in mouse S180 ascites cells implanted Swiss albino mouse assessed as mouse mortality at 10 mg/kg, ip measured on day 13; assay type: organism-based; design: dose 10 mg/kg, route intraperitoneal; conditions: in vivo
PC-3 [27] = assay: Induction of apoptosis in human PC3 cells assessed as increase in Annexin-V positive cells at 0.1 to 0.3 uM after 24 hrs; assay type: functional, cell-based
HeLa = assay: Cytotoxicity against human HeLa cells after 48 hrs by MTT assay; assay type: functional, cell-based
PC-3 [28] = assay: Induction of autophagy in human PC3 cells assessed as increase in Beclin-1 protein levels at 0.1 to 0.3 uM after 24 hrs by Western blotting method; assay type: functional, cell-based
PC-3 [29] = assay: Induction of autophagy in human PC3 cells assessed as autophagosomes formation at 100 to 300 nM after 24 hrs by acridine orange staining based fluorescence microscopy; assay type: functional, cell-based
PC-3 [30] = assay: Inhibition of Akt S473 phosphorylation in human PC3 cells at 0.1 to 0.3 uM after 24 hrs by Western blotting method; assay type: cell-based
PC-3 [31] = assay: Induction of autophagy in human PC3 cells at 300 nM pre-treated with 20 uM apoptosis inhibitor z-VAD-fmk for 1 hr before compound exposure for 24 hrs by acridine orange staining based fluorescence microscopy; assay type: functional, cell-based
PC-3 [32] = assay: Induction of autophagy in human PC3 cells assessed as increase in punctate EGFP-LC3 pattern in autophagosomes at 100 nM to 300 nM after 24 hrs by fluorescence microscopy; assay type: functional, cell-based
PC-3 [33] = assay: Induction of autophagy in human PC3 cells over-expressing Bcl-2 at 300 nM pre-treated with 20 uM apoptosis inhibitor z-VAD-fmk for 1 hr before compound exposure for 24 hrs by acridine orange staining based fluorescence microscopy; assay type: functional, cell-based
[34] = Reduction in Bcl-2 protein expression in human PC3 cells at 0.1 to 0.3 uM after 24 hrs by Western blotting method; assay type: functional, cell-based; conditions: PC-3
PC-3 [35] = assay: Inhibition of Akt in human PC3 cells assessed as reduction in mTOR S2448 phosphorylation at 0.1 to 0.3 uM after 24 hrs by Western blotting method; assay type: cell-based
PC-3 [36] = assay: Induction of apoptosis in human PC3 cells at 300 nM pre-treated with 20 uM apoptosis inhibitor z-VAD-fmk for 1 hr before compound exposure for 24 hrs by DAPI staining method; assay type: functional, cell-based
PC-3 [37] = assay: Induction of autophagy in human PC3 cells at 100 to 300 nM after 24 hrs by MDC staining based fluorescence microscopy; assay type: functional, cell-based
PC-3 [38] = assay: Induction of autophagy in human PC3 cells assessed as increase LC3 intracellular localization at 100 nM to 300 nM after 24 hrs by immunocytochemistry; assay type: functional, cell-based
PC-3 [39] = assay: Increase in PARP-cleavage in human PC3 cells at 0.3 uM in presence of Beclin-1 siRNA after 24 hrs by immunoblotting method; assay type: functional, cell-based
CCRF S-180 [40] = assay: Antitumor activity against mouse S180 solid tumor cells implanted in Swiss albino mouse assessed as tumor growth inhibition at 22 mg/kg, ip measured on day 13; assay type: functional; conditions: CCRF S-180, ip, 312 h, route intraperitoneal, read-out: TGI
Mus musculus [41] = assay: Toxicity in mouse S180 solid tumor cells implanted Swiss albino mouse assessed as mouse mortality at 22 mg/kg, ip measured on day 13; assay type: organism-based; design: dose 22 mg/kg, route intraperitoneal; conditions: in vivo
Mus musculus [42] = assay: Toxicity in mouse S180 ascites cells implanted Swiss albino mouse assessed as mouse mortality at 22 mg/kg, ip measured on day 13; assay type: organism-based; design: dose 22 mg/kg, route intraperitoneal; conditions: in vivo
CCRF S-180 [43] = assay: Antitumor activity against mouse S180 ascites cells implanted in Swiss albino mouse assessed as tumor growth inhibition at 22 mg/kg, ip measured on day 12; assay type: functional; conditions: CCRF S-180, ip, 288 h, route intraperitoneal, read-out: TGI

CC1(C)CCC[C@]2(C)[C@@H](CC[C@@](C)(O)/C=C/c3ccc(F)cc3)[C@](C)(O)CC[C@@H]12
Activity (PC-3 [1]): inactive | Activity (Mus musculus [2]): Non-toxic | Activity (PC-3 [3]): Active | Activity (Mus musculus [4]): Non-toxic | inhibition in vivo at 5 mg/kg (CCRF S-180 [5]): 32.5% | IC50 [6]: 82 nM | Activity (PC-3 [7]): Active | Activity (PC-3 [8]): Active | Activity (PC-3 [9]): Dose-dependent effect | Activity (PC-3 [10]): Active | Activity (PC-3 [11]): Active | Activity [12]: Non-toxic | Activity (PC-3 [13]): Active | Activity (PC-3 [14]): inactive | inhibition in vivo at 5 mg/kg (CCRF S-180 [15]): 64.7% | Activity (PC-3 [16]): Active | Activity (Mus musculus [17]): Non-toxic | Activity (PC-3 [18]): Active | Activity (PC-3 [19]): Dose-dependent effect | inhibition in vivo at 10 mg/kg (CCRF S-180 [20]): 74.9% | inhibition in vivo at 10 mg/kg (CCRF S-180 [21]): 39.8% | Activity (PC-3 [22]): inactive | IC50 (A549): 3.1 µM | Activity (PC-3 [23]): Active | Activity [24]: Non-toxic | Activity (PC-3 [25]): Active | Activity (Mus musculus [26]): Non-toxic | Activity (PC-3 [27]): Active | IC50 (HeLa): 3.46 µM | Activity (PC-3 [28]): Dose-dependent effect | Activity (PC-3 [29]): Active | inhibition (PC-3 [30]): Active | Activity (PC-3 [31]): inactive | Activity (PC-3 [32]): Active | Activity (PC-3 [33]): inactive | Activity [34]: Dose-dependent effect | inhibition (PC-3 [35]): Active | Activity (PC-3 [36]): inactive | Activity (PC-3 [37]): Active | Activity (PC-3 [38]): Active | Activity (PC-3 [39]): inactive

O=c1[nH]cc(F)c(=O)[nH]1 [FLUOROURACIL]
inhibition in vivo at 22 mg/kg (CCRF S-180 [40]): 52.5% | Activity (Mus musculus [41]): Non-toxic | Activity (Mus musculus [42]): Non-toxic | inhibition in vivo at 22 mg/kg (CCRF S-180 [43]): 96.9%
